Measurements reported in patent US7326689B2, “Pseudomycins useful against plant diseases” (Eli Lilly and Company, priority 2000, dated 2008).
Several values for one entry are separate records, joined by “and”; a condition that tells them apart may be missing. Equal entries are not always repeated.

Columns and labels:
Assay in all cases: Antifungal growth assay in potato dextrose broth, 24-well
Assay type in all cases: cell-based
[1] = system: Botrytis alli; design: key: NI, no inhibition; p (partial), at least 50% inhibited; settings: 2x assays
Procedure: (§1) Fungi to be tested were propagated on potato dextrose agar (PDA) plates at room temperature. Stock solutions of pseudomycins and depsipeptide were suspended in dimethylsulfoxide (DMSO) (Sigma) at 5 mg/ml and stored at −20C. Serial dilutions of compounds were done the day of the experiment. All serial dilutions were made in DMSO. […] These are noted in the raw data section.
(§2) Assays were performed in 24-well cell culture clusters (Costar 3524), with 990 ul potato dextrose broth (PDB, Difco) and 10 ul of the compound to be tested in each well. Initial concentrations tested were 50-1.56 ug/ml (final concentration of pseudomycin). Actual concentrations of pseudomycins tested were 50, 25, 12.5, 6.25, 3.12 and 1.56 ug/ml. Each well was inoculated with the appropriate fungus. Unless noted, the fungal inoculum consisted of an ˜4 mm^2 piece of PDA with fungal mycelium. The exceptions were as follows. Ustilago maydis: this fungus grows much like a yeast on PDA, and cells were scraped from the PDA stock plate, resuspended in PDB and 10 ul inoculum added to each well. Monilinia sp.: this fungal mycelium grows as a very loose sheet on top of PDA and would not adhere to agar blocks. Fungal mycelium was ground with a metal rod in 500 ul PDB and 10 ul inoculum was added to each well. Mycosphaeella fijiensis, Septoria passerinii, Septoria triticii: these fungi all grow very slowly and the results were difficult to score if a small piece of agar with fungal mycelium on it was used as an inoculum. For these fungi, the mycelium was ground with a metal rod in 500 ul PDB and 10 ul inoculum was added to each well.
(§3) Wells were scored for fungal growth at two days and five days. Some slow growing fungi were scored at later days for growth because assessment was not possible at two or five days. Growth was scored by comparison to a control consisting of fungus inoculated into 990 ul potato dextrose broth and 10 ul of DMSO (Dimethylsulfoxide). An additional control consisting of fungal inoculum in PDB only was performed to ensure that the DMSO was not inhibitory to fungal growth.
(§4) For assays that were repeated, new stock solutions were made from a second shipment of pseudomycins. Note that pseudomycin B′ and depsipeptide stock solutions were remade from first shipment materials because these were not included in the second shipment. […] Actual concentrations of pseudomycins tested were 2, 1, 0.5, 0.25, 0.125 and 0.0625 ug/ml. A-PO4 and A-FB=pseudomycin A phosphate salt and free base respectively.
(§5) Table 2: Two day results—concentration indicated is lowest level of compound (ug /ml) that results is no growth. NI, no inhibition; p (partial), at least 50% inhibited; -, not determined. If number of assays was greater than one, number of assays performed on the fungus is noted in parentheses. For several slow-growing fungi, days elapsed before observation (if different than two) are noted.
(§6) Table 3: Five day results—concentration indicated is lowest level of compound (ug /ml) that results in no growth. NI, no inhibition; p (partial), at least 50% inhibited; -, not performed on the fungus is noted in parentheses. For several slow-growing fungi, days elapsed before observation (if different than five) are noted.

[2] = system: Phyllosticta maydis; design: key: NI, no inhibition; p (partial), at least 50% inhibited
Procedure: as §1, §2, §3, §4, §5, §6

[3] = system: Cochliobolus carbonum; design: key: NI, no inhibition; p (partial), at least 50% inhibited
Procedure: as §1, §2, §3, §4, §5, §6

[4] = system: Phytophthora cactorum; design: key: NI, no inhibition; p (partial), at least 50% inhibited
Procedure: as §1, §2, §3, §4, §5, §6

[5] = system: Phytophthora ultimum; design: key: NI, no inhibition; p (partial), at least 50% inhibited
Procedure: as §1, §2, §3, §4, §5, §6

[6] = system: Fusarium culmorum; design: key: NI, no inhibition; p (partial), at least 50% inhibited
Procedure: as §1, §2, §3, §4, §5, §6

[7] = system: Pestalotiopsis microspora NE-32; design: key: NI, no inhibition; p (partial), at least 50% inhibited
Procedure: as §1, §2, §3, §4, §5, §6

[8] = system: Tapesia acuformis; design: key: NI, no inhibition; p (partial), at least 50% inhibited; settings: 2x assays
Procedure: as §1, §2, §3, §4, §5, §6

[9] = system: Tapesia yallundae; design: key: NI, no inhibition; p (partial), at least 50% inhibited; settings: 2x assays
Procedure: as §1, §2, §3, §4, §5, §6

[10] = system: Drechslera tritici-repentis; design: key: NI, no inhibition; p (partial), at least 50% inhibited
Procedure: as §1, §2, §3, §4, §5, §6

[11] = system: Diplodia natalensis; design: key: NI, no inhibition; p (partial), at least 50% inhibited
Procedure: as §1, §2, §3, §4, §5, §6

[12] = system: Geotrichim candidum; settings: 3x assays
Procedure: as §1, §2, §3, §4, §5, §6

[13] = system: Drechslera portulacae; settings: 3x assays
Procedure: as §1, §2, §3, §4, §5, §6

[14] = system: Septoria tritici; settings: 3x assays
Procedure: as §1, §2, §3, §4, §5, §6

[15] = system: Septoria passerinii; settings: 3x assays
Procedure: as §1, §2, §3, §4, §5, §6

[16] = system: Mycosphaeella fijiensis (Sigatoka); settings: 3x assays
Procedure: as §1, §2, §3, §4, §5, §6

[17] = system: Mycosphaeella fijiensis (8088/88); settings: 3x assays
Procedure: as §1, §2, §3, §4, §5, §6

[18] = system: Rhizoctonia solani; settings: 2x assays
Procedure: as §1, §2, §3, §4, §5, §6

[19] = system: Penicillium roqueforti; settings: 3x assays
Procedure: as §1, §2, §3, §4, §5, §6

[20] = system: Ustilago maydis; settings: 3x assays
Procedure: as §1, §2, §3, §4, §5, §6

[21] = system: Monilinia sp.; settings: 2x assays
Procedure: as §1, §2, §3, §4, §5, §6

[22] = Table 3 (five day results), observed at 9 day
[23] = Table 2 (two day results), observed at 7 day
[24] = Table 3 (five day results), observed at 21 days

Substance: Pseudomycin C
- lowest level of compound that results in no growth ([1]; five day results): NI
- lowest level of compound that results in no growth ([1]; two day results): NI
- lowest level of compound that results in no growth ([2]; five day results): NI
- lowest level of compound that results in no growth ([2]; two day results): p at 50
- lowest level of compound that results in no growth ([3]; five day results): NI
- lowest level of compound that results in no growth ([3]; two day results): NI
- lowest level of compound that results in no growth ([4]; five day results): NI
- lowest level of compound that results in no growth ([4]; two day results): NI
- lowest level of compound that results in no growth ([5]; five day results): NI
- lowest level of compound that results in no growth ([5]; two day results): NI
- lowest level of compound that results in no growth ([6]; five day results): NI
- lowest level of compound that results in no growth ([6]; two day results): NI
- lowest level of compound that results in no growth ([7]; five day results): NI
- lowest level of compound that results in no growth ([7]; two day results): NI
- lowest level of compound that results in no growth ([8]; five day results): NI
- lowest level of compound that results in no growth ([8]; two day results): NI
- lowest level of compound that results in no growth ([9]; five day results): NI
- lowest level of compound that results in no growth ([9]; two day results): 25 µg/mL
- lowest level of compound that results in no growth ([10]; five day results): NI
- lowest level of compound that results in no growth ([10]; two day results, 2x assays): 50 µg/mL
- lowest level of compound that results in no growth ([11]; five day results): NI
- lowest level of compound that results in no growth ([11]; two day results): NI
- lowest level of compound that results in no growth ([12]; five day results): 25 µg/mL
- lowest level of compound that results in no growth ([12]; two day results): 3.12 µg/mL
- lowest level of compound that results in no growth [13, 22]: 0.0625 µg/mL and 0.06 µg/mL
- lowest level of compound that results in no growth ([13]; two day results): 0.06 µg/mL
- lowest level of compound that results in no growth ([14]; five day results): 0.25 µg/mL
- lowest level of compound that results in no growth ([14]; two day results): 0.125 µg/mL
- lowest level of compound that results in no growth ([15]; five day results): 0.0625 µg/mL and 0.06 µg/mL
- lowest level of compound that results in no growth ([15]; two day results): 0.06 µg/mL
- lowest level of compound that results in no growth [16, 23]: 1.56 µg/mL
- lowest level of compound that results in no growth [16, 24]: 1.56 µg/mL
- lowest level of compound that results in no growth [17, 23]: 0.125 µg/mL
- lowest level of compound that results in no growth [17, 24]: 0.25 µg/mL
- lowest level of compound that results in no growth ([18]; five day results): p at 50
- lowest level of compound that results in no growth ([18]; two day results): 25 µg/mL
- lowest level of compound that results in no growth ([19]; five day results): 12.5 µg/mL
- lowest level of compound that results in no growth ([19]; two day results): 1.56 µg/mL
- lowest level of compound that results in no growth ([20]; five day results): 0.25 µg/mL
- lowest level of compound that results in no growth ([20]; two day results): 0.25 µg/mL
- lowest level of compound that results in no growth ([21]; five day results): 12.5 µg/mL
- lowest level of compound that results in no growth ([21]; two day results): 6.25 µg/mL

Substance: Pseudomycin C′
- lowest level of compound that results in no growth ([1]; five day results): NI
- lowest level of compound that results in no growth ([1]; two day results): NI
- lowest level of compound that results in no growth ([2]; five day results): NI
- lowest level of compound that results in no growth ([2]; two day results): p at 50
- lowest level of compound that results in no growth ([3]; five day results): NI
- lowest level of compound that results in no growth ([3]; two day results): NI
- lowest level of compound that results in no growth ([4]; five day results): NI
- lowest level of compound that results in no growth ([4]; two day results): NI
- lowest level of compound that results in no growth ([5]; five day results): NI
- lowest level of compound that results in no growth ([5]; two day results): NI
- lowest level of compound that results in no growth ([6]; five day results): NI
- lowest level of compound that results in no growth ([6]; two day results): NI
- lowest level of compound that results in no growth ([7]; five day results): NI
- lowest level of compound that results in no growth ([7]; two day results): NI
- lowest level of compound that results in no growth ([8]; five day results): NI
- lowest level of compound that results in no growth ([8]; two day results): NI
- lowest level of compound that results in no growth ([9]; five day results): NI
- lowest level of compound that results in no growth ([9]; two day results): 6.25 µg/mL
- lowest level of compound that results in no growth ([10]; five day results): NI
- lowest level of compound that results in no growth ([10]; two day results, 2x assays): 50 µg/mL
- lowest level of compound that results in no growth ([11]; five day results): NI
- lowest level of compound that results in no growth ([11]; two day results): NI
- lowest level of compound that results in no growth ([12]; five day results): 6.25 µg/mL
- lowest level of compound that results in no growth ([12]; two day results): 1.56 µg/mL
- lowest level of compound that results in no growth [13, 22]: 0.5 µg/mL
- lowest level of compound that results in no growth ([13]; two day results): 0.05 µg/mL
- lowest level of compound that results in no growth ([14]; five day results): 0.25 µg/mL
- lowest level of compound that results in no growth ([14]; two day results): 0.125 µg/mL
- lowest level of compound that results in no growth ([15]; five day results): 0.0625 µg/mL and 0.06 µg/mL
- lowest level of compound that results in no growth ([15]; two day results): 0.06 µg/mL
- lowest level of compound that results in no growth [16, 23]: 1.56 µg/mL
- lowest level of compound that results in no growth [16, 24]: 1.56 µg/mL
- lowest level of compound that results in no growth [17, 23]: 0.125 µg/mL
- lowest level of compound that results in no growth [17, 24]: 0.25 µg/mL
- lowest level of compound that results in no growth ([18]; five day results): p at 50
- lowest level of compound that results in no growth ([18]; two day results): p at 50
- lowest level of compound that results in no growth ([19]; five day results): p at 50
- lowest level of compound that results in no growth ([19]; two day results): 1.56 µg/mL
- lowest level of compound that results in no growth ([20]; five day results): 0.25 µg/mL
- lowest level of compound that results in no growth ([20]; two day results): 0.25 µg/mL
- lowest level of compound that results in no growth ([21]; five day results): 6.25 µg/mL
- lowest level of compound that results in no growth ([21]; two day results): 3.12 µg/mL
